Test results: patent US10472635B2, “Methods of treating brain edema” (priority 2015, dated 2019)

Legend:
[1] = tested on: cortical neurons in brain slices; assay: Neuronal swelling imaging assay in brain slices (cross sectional area of CoroNa-stained soma, two-photon); type: cell-based, rat
[2] = tested on: neuronal [Na^+]i in brain slices; assay: Neuronal [Na+]i by CoroNa Green fluorescence / two-photon FLIM; type: cell-based, rat; details: CoroNa signal; TTX 1 μM; DIDS 250 μM
rat hippocampal slices = assay: LDH release cell death assay in hippocampal slices; type: cell-based
[3] = tested on: voltage-dependent Cl^− current in layer 4 cortical neurons; assay: Whole-cell voltage clamp of depolarization-activated Cl- current; type: cell-based, rat; details: depolarization to −20 mV or greater; cocktail of channel blockers; GlyH-101 by dialysis
Procedure: Electrophysiology: Whole-cell recordings were performed in the presence of antagonists of GABAA (10 μM picrotoxin), AMPA/kainite (10 μM 6-cyano-7-nitoquinoxaline-2,3-dione—CNQX), and NMDA (2R-amino-5-phosphonovaleric acid—APV) receptors. 60 μM cadmium, 50 μM nickel and 100 μM 4AP (4-aminopyridine) were used to block voltage-gated calcium channels and A-type potassium channels. Whole-cell voltage-clamp recordings from cortical neurons were carried out at room temperature while the recording chamber was perfused with ACSF at 1-1.5 ml min-1. Recordings were made using a MultiClamp 700B amplifier controlled by Clampex 10.2 via a Digidata 1440A data acquisition system with 3-5M ? glass electrodes. The pipette solution containing (in m ? ): 108 CsCl, 8 TEA-Cl, 8 NaGluc, 1 CsEGTA, 4 K-ATP, 0.3 Na-GTP, 10 Hepes, 2MgCl2 (pH 7.2 with CsOH, 286 mosmol 1-1). Normal ACSF contained (in mM): 126 NaCl, 26 NaHCO3, 10 glucose, 2 MgCl2, 1.25 NaH2PO4, 2.5 KCl, 2.0 CaCl2 (pH 7.25, 310 mosmol 1-1). NaCl was replaced with 126 mM Na-isethionate in the low-chloride ACSF. Recordings where the series resistance varied more than 10% were rejected. Data were analyzed with Clampfit 10.0.
The opening of Na^+ permeable channels causes both [Na^+]i accumulation and neuronal depolarization. […] However progressive accumulation of extracellular K^+ could lead to further depolarization of the membrane. […]

VRAC = details: cited from earlier work
Maxi-Anion Channel = details: cited from earlier work
SLC4-A3, A8, A10 = details: cited from earlier work
SLC26A11 = target: T1, SLC26A11 (Homo sapiens, UniProt Q86WA9); details: cited from earlier work
T1 sequence (Q86WA9 1-606): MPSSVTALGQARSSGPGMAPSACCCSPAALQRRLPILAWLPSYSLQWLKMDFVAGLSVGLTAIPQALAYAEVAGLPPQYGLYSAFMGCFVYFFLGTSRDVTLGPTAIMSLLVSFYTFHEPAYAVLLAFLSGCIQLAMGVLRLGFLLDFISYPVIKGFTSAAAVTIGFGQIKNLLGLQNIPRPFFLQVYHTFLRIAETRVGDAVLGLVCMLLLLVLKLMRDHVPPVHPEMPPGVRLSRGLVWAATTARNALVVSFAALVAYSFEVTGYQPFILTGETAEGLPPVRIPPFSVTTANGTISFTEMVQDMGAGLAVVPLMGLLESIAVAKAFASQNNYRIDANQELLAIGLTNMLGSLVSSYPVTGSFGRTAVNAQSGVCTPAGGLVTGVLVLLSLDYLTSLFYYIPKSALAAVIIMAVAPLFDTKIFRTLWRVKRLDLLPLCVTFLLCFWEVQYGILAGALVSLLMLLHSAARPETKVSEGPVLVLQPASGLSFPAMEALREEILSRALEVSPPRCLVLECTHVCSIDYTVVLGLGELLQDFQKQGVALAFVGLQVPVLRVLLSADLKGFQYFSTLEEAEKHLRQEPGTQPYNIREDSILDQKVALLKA

SMILES: O=S(=O)(O)c1cc(N=C=S)ccc1C=Cc1ccc(N=C=S)cc1S(=O)(=O)O [DIDS]
- effect on veratridine-induced neuronal swelling ([1]; 22-24 °C, antagonist bath applied and in puffing pipette, DIDS 250 μM, NPPB 200 μM, TTX 1 μM): reduced the swelling
- effect on veratridine-stimulated neuronal swelling at 37 °C ([1]; 37 °C, Calcein green-AM): block
- effect on NMDA-induced neuronal swelling ([1]; DIDS 250 μM, 500 μM, 1 mM, d-APV 100 μM): blocked NMDA-evoked neuronal swelling in a dose-dependent manner
- effect on veratridine-induced [Na+]i increase [2]: not affected
- effect on veratridine-induced cell death (LDH release) (rat hippocampal slices; 50 μM veratridine): prevented cell death
- effect on NMDA-induced cell death (LDH release), Ca2+-independent (rat hippocampal slices; NMDA in Ca2+ free extracellular solution): blocked
- effect on NMDA-induced cell death (LDH release), Ca2+-dependent (rat hippocampal slices; NMDA with extracellular Ca2+ present, reduced extracellular Na+): not blocked
- effect on non-inactivating Cl- current elicited by depolarization [3]: blocked
- concentration (antagonist sensitivity of channel/transporter) (VRAC): 100 to 400 µM
- concentration (antagonist sensitivity of channel/transporter) (Maxi-Anion Channel): 100 µM
- concentration (antagonist sensitivity of channel/transporter) (SLC4-A3, A8, A10): 0.1 to 0.5 mM
- concentration (antagonist sensitivity of channel/transporter) (SLC26A11): 0.5 to 1 mM
